Assay results reported in paper PMC10504751, “Chalcone/1,3,4-Oxadiazole/Benzimidazole hybrids as novel anti-proliferative agents inducing apoptosis and inhibiting EGFR & BRAFV^600E” (BMC Chemistry, 2023).
Like-named read-outs stand apart in the source and are kept apart here.

Legend:
Assay in all cases: NCI one-dose SRB anti-proliferative screen
Type in all cases: cell-based
HOP-92 = settings: Homo sapiens, read-out: Cell growth inhibition %
In short: (§1)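 Read-out: sulforhodamine B protein stain measured colorimetrically after exposure of the cells to test compound at 10 µM. This line formed one member of a 60-line panel spanning lung, leukaemia, melanoma, colon, renal, CNS, prostate, breast and ovarian origins.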

SNB-19 = settings: Homo sapiens, read-out: Cell growth inhibition %
In short: as §1

MDA-MB-231/ATCC = settings: Homo sapiens, read-out: Cell growth inhibition %
In short: as §1

U251 = settings: Homo sapiens, U-251, read-out: Cell growth inhibition %
In short: as §1

SW-620 = settings: Homo sapiens, read-out: Cell growth inhibition %
In short: as §1

UO-31 = settings: Homo sapiens, read-out: Cell growth inhibition %
In short: as §1

HOP-62 = settings: Homo sapiens, read-out: Cell growth inhibition %
In short: as §1

M14 = settings: Homo sapiens, read-out: Cell growth inhibition %
In short: as §1

OVCAR-5 = settings: Homo sapiens, read-out: Cell growth inhibition %
In short: as §1

SR = settings: Homo sapiens, read-out: Cell growth inhibition %
In short: as §1

HT29 = settings: Homo sapiens, HT-29, read-out: Cell growth inhibition %
In short: as §1

SF-539 = settings: Homo sapiens, read-out: Cell growth inhibition %
In short: as §1

A498 = settings: Homo sapiens, read-out: Cell growth inhibition %
In short: as §1

OVCAR-8 = settings: Homo sapiens, read-out: Cell growth inhibition %
In short: as §1

OVCAR-4 = settings: Homo sapiens, read-out: Cell growth inhibition %
In short: as §1

SK-MEL-2 = settings: Homo sapiens, read-out: Cell growth inhibition %
In short: as §1

NCI-H322M = settings: Homo sapiens, read-out: Cell growth inhibition %
In short: as §1

MDA-MB-435 = settings: Homo sapiens, read-out: Cell growth inhibition %
In short: as §1

NCI/ADR-RES = settings: Homo sapiens, read-out: Cell growth inhibition %
In short: as §1

NCI-H460 = settings: Homo sapiens, read-out: Cell growth inhibition %
In short: as §1

HL-60(TB) = settings: Homo sapiens, read-out: Cell growth inhibition %
In short: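 Activity reflects a single-point exposure at 10 µM, with cell mass determined by a sulforhodamine B dye assay.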

TK-10 = settings: Homo sapiens, read-out: Cell growth inhibition %
In short: as §1

BT-549 = settings: Homo sapiens, read-out: Cell growth inhibition %
In short: as §1

HCT-15 = settings: Homo sapiens, read-out: Cell growth inhibition %
In short: as §1

[1] = HOP-92, Non-Small Cell Lung Cancer, NCI one dose
[2] = SNB-19, CNS Cancer, NCI one dose
[3] = MDA-MB-231/ATCC, Breast cancer, NCI one dose
[4] = SW-620, Colon cancer, NCI one dose
[5] = UO-31, Renal cancer, NCI one dose
[6] = HOP-62, Non-Small Cell Lung Cancer, NCI one dose
[7] = OVCAR-5, Ovarian Cancer, NCI one dose
[8] = HT29, Colon cancer, NCI one dose
[9] = SF-539, CNS Cancer, NCI one dose
[10] = A498, Renal cancer, NCI one dose
[11] = OVCAR-8, Ovarian Cancer, NCI one dose
[12] = OVCAR-4, Ovarian Cancer, NCI one dose
[13] = SK-MEL-2, Melanoma, NCI one dose
[14] = NCI-H322M, Non-Small Cell Lung Cancer, NCI one dose
[15] = MDA-MB-435, Melanoma, NCI one dose
[16] = NCI/ADR-RES, Ovarian Cancer, NCI one dose
[17] = NCI-H460, Non-Small Cell Lung Cancer, NCI one dose
[18] = HL-60(TB), Leukemia, NCI one dose
[19] = TK-10, Renal cancer, NCI one dose
[20] = BT-549, Breast cancer, NCI one dose
[21] = HCT-15, Colon cancer, NCI one dose

Work on `COc1ccc(-c2nc3cc(-c4nnc(SCC(=O)Nc5ccc(C(=O)/C=C/c6ccc(Cl)cc6)cc5)o4)ccc3[nH]2)cc1` [Compound 7l, 2-{5-[2-(4-Methoxyphenyl)-1 H-benzo[d]imidazol-5-yl]-1,3,4-oxadiazol-2-ylthio}-N-{4-[(E)-3-(4-chlorophenyl)acryloyl]phenyl}acetamide] yielded an inhibition at 10 µM (HOP-92; [1]) of 5.04%, an inhibition at 10 µM (SNB-19; [2]) of 0% and an inhibition at 10 µM (MDA-MB-231/ATCC; [3]) of 5.19%. The inhibition at 10 µM (U251; U251, CNS Cancer, NCI one dose) was 5.67%, the inhibition at 10 µM (SW-620; [4]) was 3.03% and the inhibition at 10 µM (UO-31; [5]) was 14.7%. The inhibition at 10 µM (HOP-62; [6]) was 0.53%, the inhibition at 10 µM (M14; M14, Melanoma, NCI one dose) was 0% and the inhibition at 10 µM (OVCAR-5; [7]) was 0.55%. It also gave an inhibition at 10 µM (SR; SR, Leukemia, NCI one dose) of 31.8%, an inhibition at 10 µM (HT29; [8]) of 0% and an inhibition at 10 µM (SF-539; [9]) of 12.9%. The inhibition at 10 µM (A498; [10]) was 15.7%, the inhibition at 10 µM (OVCAR-8; [11]) was 0% and the inhibition at 10 µM (OVCAR-4; [12]) was 0%. For the same compound, the inhibition at 10 µM (SK-MEL-2; [13]) was 0%, the inhibition at 10 µM (NCI-H322M; [14]) was 0% and the inhibition at 10 µM (MDA-MB-435; [15]) was 0.7%. The inhibition at 10 µM (NCI/ADR-RES; [16]) was 0%, the inhibition at 10 µM (NCI-H460; [17]) was 0% and the inhibition at 10 µM (HL-60(TB); [18]) was 5.86%. It also gave an inhibition at 10 µM (TK-10; [19]) of 0%, an inhibition at 10 µM (BT-549; [20]) of 1.84% and an inhibition at 10 µM (HCT-15; [21]) of 13.9%.
For `COc1ccc(/C=C/C(=O)c2ccc(NC(=O)CSc3nnc(-c4ccc5[nH]c(-c6ccc(OC)cc6)nc5c4)o3)cc2)cc1` [Compound 7m, 2-{5-[2-(4-Methoxyphenyl)-1 H-benzo[d]imidazol-5-yl]-1,3,4-oxadiazol-2-ylthio}-N-{4-[(E)-3-(4-methoxyphenyl)acryloyl]phenyl}acetamide], the inhibition at 10 µM (HOP-92; [1]) was 18.9%, the inhibition at 10 µM (SNB-19; [2]) was 3.7% and the inhibition at 10 µM (MDA-MB-231/ATCC; [3]) was 9.52%. It also gave an inhibition at 10 µM (U251; U251, CNS Cancer, NCI one dose) of 15.9%, an inhibition at 10 µM (SW-620; [4]) of 2% and an inhibition at 10 µM (UO-31; [5]) of 7.02%. For the same compound, the inhibition at 10 µM (HOP-62; [6]) was 4.92%, the inhibition at 10 µM (M14; M14, Melanoma, NCI one dose) was 0% and the inhibition at 10 µM (OVCAR-5; [7]) was 0%. The inhibition at 10 µM (SR; SR, Leukemia, NCI one dose) was 40.5%, the inhibition at 10 µM (HT29; [8]) was 0% and the inhibition at 10 µM (SF-539; [9]) was 18%. For the same compound, the inhibition at 10 µM (A498; [10]) was 0%, the inhibition at 10 µM (OVCAR-8; [11]) was 23.4% and the inhibition at 10 µM (OVCAR-4; [12]) was 6.89%. It also gave an inhibition at 10 µM (SK-MEL-2; [13]) of 0%, an inhibition at 10 µM (NCI-H322M; [14]) of 3.18% and an inhibition at 10 µM (MDA-MB-435; [15]) of 7.11%. It also gave an inhibition at 10 µM (NCI/ADR-RES; [16]) of 0%, an inhibition at 10 µM (NCI-H460; [17]) of 1.44% and an inhibition at 10 µM (HL-60(TB); [18]) of 21.9%. For the same compound, the inhibition at 10 µM (TK-10; [19]) was 0%, the inhibition at 10 µM (BT-549; [20]) was 14.3% and the inhibition at 10 µM (HCT-15; [21]) was 4.27%.
In the case of `COc1cc(-c2nc3cc(-c4nnc(SCC(=O)Nc5ccc(C(=O)/C=C/c6ccc(Cl)cc6)cc5)o4)ccc3[nH]2)cc(OC)c1OC` [Compound 7v, 2-{5-[2-(3,4,5-Trimethoxyphenyl)-1 H-benzo[d]imidazol-5-yl]-1,3,4-oxadiazol-2-ylthio}-N-{4-[(E)-3-(4-chlorophenyl)acryloyl]phenyl}acetamide], the inhibition at 10 µM (HOP-92; HOP-92 (Non-Small Cell Lung Cancer), NCI one dose 10 µM) was 17.8%, the inhibition at 10 µM (SNB-19; SNB-19 (CNS Cancer), NCI one dose 10 µM) was 6.59% and the inhibition at 10 µM (MDA-MB-231/ATCC; MDA-MB-231/ATCC (Breast Cancer), NCI one dose 10 µM) was 8.4%. The inhibition at 10 µM (U251; U251 (CNS Cancer), NCI one dose 10 µM) was 22.4%, the inhibition at 10 µM (SW-620; SW-620 (Colon Cancer), NCI one dose 10 µM) was 0% and the inhibition at 10 µM (UO-31; UO-31 (Renal Cancer), NCI one dose 10 µM) was 16%. It also gave an inhibition at 10 µM (HOP-62; HOP-62 (Non-Small Cell Lung Cancer), NCI one dose 10 µM) of 0%, an inhibition at 10 µM (M14; M14 (Melanoma), NCI one dose 10 µM) of 0% and an inhibition at 10 µM (OVCAR-5; OVCAR-5 (Ovarian Cancer), NCI one dose 10 µM) of 0.76%. The inhibition at 10 µM (SR; SR (Leukemia), NCI one dose 10 µM) was 39.6%, the inhibition at 10 µM (HT29; HT29 (Colon Cancer), NCI one dose 10 µM) was 0% and the inhibition at 10 µM (SF-539; SF-539 (CNS Cancer), NCI one dose 10 µM) was 25.3%. It also gave an inhibition at 10 µM (A498; A498 (Renal Cancer), NCI one dose 10 µM) of 16.8%, an inhibition at 10 µM (OVCAR-8; OVCAR-8 (Ovarian Cancer), NCI one dose 10 µM) of 7.52% and an inhibition at 10 µM (OVCAR-4; OVCAR-4 (Ovarian Cancer), NCI one dose 10 µM) of 0%. For the same compound, the inhibition at 10 µM (SK-MEL-2; SK-MEL-2 (Melanoma), NCI one dose 10 µM) was 0%, the inhibition at 10 µM (NCI-H322M; NCI-H322M (Non-Small Cell Lung Cancer), NCI one dose 10 µM) was 3.77% and the inhibition at 10 µM (MDA-MB-435; MDA-MB-435 (Melanoma), NCI one dose 10 µM) was 1.02%. The inhibition at 10 µM (NCI/ADR-RES; NCI/ADR-RES (Ovarian Cancer), NCI one dose 10 µM) was 0%, the inhibition at 10 µM (NCI-H460; NCI-H460 (Non-Small Cell Lung Cancer), NCI one dose 10 µM) was 0% and the inhibition at 10 µM (HL-60(TB); HL-60(TB) (Leukemia), NCI one dose 10 µM) was 7.46%. The inhibition at 10 µM (TK-10; TK-10 (Renal Cancer), NCI one dose 10 µM) was 0%, the inhibition at 10 µM (BT-549; BT-549 (Breast Cancer), NCI one dose 10 µM) was 15.6% and the inhibition at 10 µM (HCT-15; HCT-15 (Colon Cancer), NCI one dose 10 µM) was 13.1%.
